Assay results from PubChem BioAssay (NCI).
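48-hour exposure; five concentrations; linearly interpolated endpoints. Abbreviation: GI50, concentration required for 50% inhibition of growth. TGI marks complete inhibition of growth.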

Columns and labels:
Test in all cases: NCI tumour cell line growth inhibition, 48 h
A498 renal = test system: A498 renal
HCT-15 colon = test system: HCT-15 colon
SK-MEL-5 melanoma = test system: SK-MEL-5 melanoma
MOLT-4 leukemia = test system: MOLT-4 leukemia
HOP-92 NSCLC = test system: HOP-92 NSCLC
IGROV1 ovarian = test system: IGROV1 ovarian
RXF 393 renal = test system: RXF 393 renal
SK-MEL-28 melanoma = test system: SK-MEL-28 melanoma
K-562 leukemia = test system: K-562 leukemia
MCF7 breast = test system: MCF7 breast

Row | Compound | TGI (A498 renal) [µM] | TGI (HCT-15 colon) [µM] | TGI (SK-MEL-5 melanoma) [µM] | TGI (MOLT-4 leukemia) [µM] | TGI (HOP-92 NSCLC) [µM] | TGI (IGROV1 ovarian) [µM] | TGI (RXF 393 renal) [µM] | TGI (SK-MEL-28 melanoma) [µM] | TGI (K-562 leukemia) [µM] | TGI (MCF7 breast) [µM] | GI50 (A498 renal) [µM] | GI50 (MOLT-4 leukemia) [µM] | GI50 (RXF 393 renal) [µM] | GI50 (HCT-15 colon) [µM] | GI50 (MCF7 breast) [µM] | GI50 (SK-MEL-5 melanoma) [µM] | GI50 (HOP-92 NSCLC) [µM] | GI50 (IGROV1 ovarian) [µM] | GI50 (SK-MEL-28 melanoma) [µM] | GI50 (K-562 leukemia) [µM]
1 | CN(C)c1ccc(/C=N/NC2=N/C(=C\c3ccco3)C(=O)N2)cc1 | > 100 | > 100 | > 100 | > 100 | > 100 | > 100 | > 100 | > 100 | > 100 |  |  |  |  |  |  |  |  |  |  | 
2 | Clc1ccc(-c2nc(-c3ccc(Cl)cc3)[s+]s2)cc1 | > 100 | > 100 | > 100 | > 100 |  | > 100 | > 100 | > 100 | > 100 | > 100 |  |  |  |  |  |  |  |  |  | 
3 | CN(C)c1ccc(/C=C2\N=C(c3ccccc3)N(c3nc4c(Cl)cc(Cl)cc4s3)C2=O)cc1 | 92.3 | > 100 | > 100 | > 100 | > 100 | > 100 |  | > 100 | > 100 | > 100 |  |  |  |  |  |  |  |  |  | 
4 | Nc1cc(CO)cc(Nc2c3ccccc3nc3occc23)c1 | > 100 | > 100 | 58.9 | 50.1 | > 100 | 90.8 |  | 72.4 |  | 66 |  |  |  |  |  |  |  |  |  | 
5 | CCCCCC(C)C[C@H]1CO[C@H](c2ccc[nH]2)N[C@H]1C(=O)OC (some centres undefined) | > 100 | > 100 | > 100 | > 100 | > 100 | > 100 | > 100 | > 100 |  | > 100 |  |  |  |  |  |  |  |  |  | 
6 | Cc1nc2c(Br)cc(Br)cc2c(=O)n1-c1ccccc1N | > 100 | > 100 | 39 | > 100 |  | > 100 |  | > 100 | > 100 | > 100 |  |  |  |  |  |  |  |  |  | 
7 | N#CC(c1ccccc1)c1cccc2ccccc12 (centres undefined) | 76.5 | > 100 | 34.3 | 57.6 |  | > 100 |  | > 100 | > 100 | 92.4 |  |  |  |  |  |  |  |  |  | 
8 | CCn1c2c(c3c(C(=O)OC)c(O)ccc31)C(=O)c1ccccc1C2=O |  | 30.1 | 27.6 | 61.5 | 32.8 | 15.3 | 52.6 | 42.6 | > 100 | 70.8 |  |  |  |  |  |  |  |  |  | 
9 | Cc1ccc2[nH]c(=O)c(-c3cnc(=O)[nH]n3)c(O)c2c1 | > 100 | > 100 | > 100 | > 100 |  | > 100 | > 100 | > 100 | > 100 | > 100 |  |  |  |  |  |  |  |  |  | 
10 | CCCCCCCCCC[C@@H](O)[C@@H]1CC[C@@H]([C@@H]2CC[C@@H]([C@@H](O)CCCCCCCCCCC(O)CC3=CC(C)OC3=O)O2)O1 (some centres undefined) | > 10 | > 10 | 2.92 | > 10 |  | > 10 | > 10 | > 10 | > 10 | > 10 |  |  |  |  |  |  |  |  |  | 
11 | Nc1nc(N)c2ncn(CC(CO)CC(c3ccccc3)P(=O)(O)O)c2n1 (centres undefined) | > 100 | > 100 | > 100 | > 100 | > 100 | > 100 | > 100 | > 100 | > 100 |  |  |  |  |  |  |  |  |  |  | 
12 | CC(Nc1cc(Cl)cc(Cl)c1)c1ccncc1 (centres undefined) | 88.8 | > 100 | 28.7 | 69.1 |  | 31.8 | 71.3 | 97.8 | > 100 | 34.3 |  |  |  |  |  |  |  |  |  | 
13 | CC1CC[C@]2(C(=O)O)CCC3(C)C(=C2[C@H]1C)C=CC1[C@@]2(C)CC[C@H](O)C(C)(C)C2CC[C@]13C (some centres undefined) |  | > 100 | 56.6 | > 100 | 43.9 | 98.2 | 29 | 98.4 | > 100 | > 100 |  |  |  |  |  |  |  |  |  | 
14 | CN(C)Cc1cc(C(=O)O)cc(CN(C)C)c1O | > 100 | > 100 | > 100 |  | > 100 | > 100 | > 100 | > 100 | > 100 | > 100 |  |  |  |  |  |  |  |  |  | 
15 | Fc1cccc2nc(-c3ccccc3)cc(OCc3ccccc3)c12 | > 100 | > 100 | > 100 | > 100 |  | > 100 | > 100 | > 100 | > 100 | > 100 |  |  |  |  |  |  |  |  |  | 
16 | C=C[C@H]1CN2CC[C@H]1C[C@@H]2[C@@H](O)c1ccnc2ccccc12 | > 100 | > 100 | > 100 | > 100 |  | 75.9 | > 100 | > 100 | > 100 | > 100 |  |  |  |  |  |  |  |  |  | 
17 | O=C(c1cccs1)N(C(=O)N1CCC(c2ccccc2)CC1)c1ccccc1 | > 100 | > 100 | 38.8 | > 100 |  | > 100 | > 100 | > 100 | > 100 | > 100 |  |  |  |  |  |  |  |  |  | 
18 | NCCCCCCNc1cc(-c2cccc(OC(F)(F)F)c2)nc2ccc(N3CCCC3)cc12 | 2.81 |  |  | 3.59 |  |  | 2.52 |  |  |  | 1.46 | 1.6 | 1.22 |  |  |  |  |  |  | 
19 | Brc1ccc2c(c1)C1=C(CO2)Cc2ccccc2O1 | 45.2 | 38.4 | 28.2 | 66.1 | 31.5 | 32.7 |  |  | > 100 |  |  |  |  |  |  |  |  |  |  | 
20 | CC1(C)CCOC(=O)C(Cl)CC1Cl (centres undefined) | > 100 | > 100 | > 100 | > 100 |  | > 100 | > 100 | > 100 | > 100 | > 100 |  |  |  |  |  |  |  |  |  | 
21 | COc1ccc(-c2cn3ccnc3c(-c3ccc4ncn(C5CCCCC5)c4c3)n2)cc1 | > 100 | > 100 | 3.2 | > 100 | > 100 | > 100 |  | > 100 | > 100 | > 100 | 0.742 | 2.66 |  | 0.722 | 0.64 | 0.698 | 1.18 | 0.921 | 2.1 | 0.422
22 | O=C1CSC2(CCN(CCCN3c4ccccc4Sc4ccc(Cl)cc43)CC2)N1 | 31 | 20.8 | 23 |  | 20.3 | 20.8 | 16.3 | 28.9 | 16.8 | 18.5 |  |  |  |  |  |  |  |  |  | 
